Assay results: US20260364181A1, “AKR1C3 Targeted Heterobifunctional Small Molecule Proteolysis Targeting Chimeras” (BOARD OF REGENTS OF THE UNIVERSITY OF NEBRASKA, priority 2022, published 2026)
One block for each molecule: values may come before it.

What was measured:
AKR1C3 [1] = molecular target: T1, AKR1C3 (Homo sapiens, UniProt P42330); test: AKR1C3 enzyme inhibition (oxidation of S-tetralol); format: biochemical; details: role: substrate
T1 sequence (P42330 1-323): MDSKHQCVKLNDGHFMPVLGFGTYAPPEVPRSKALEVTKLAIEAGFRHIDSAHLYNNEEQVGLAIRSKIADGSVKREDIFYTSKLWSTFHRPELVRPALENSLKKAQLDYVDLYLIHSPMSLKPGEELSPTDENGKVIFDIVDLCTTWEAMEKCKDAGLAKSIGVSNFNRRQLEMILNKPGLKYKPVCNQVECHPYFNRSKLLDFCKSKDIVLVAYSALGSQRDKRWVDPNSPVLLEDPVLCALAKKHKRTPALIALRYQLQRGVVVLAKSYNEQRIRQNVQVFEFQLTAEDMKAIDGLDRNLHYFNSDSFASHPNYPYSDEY
Description: (§1) Enzyme Inhibition Assay. (S)-(+)-1,2,3,4-tetrahydro-1-naphthol (S-tetralol) was purchased from Sigma-Aldrich (St. Louis, MO). Nicotinamide adenine dinucleotide (NAD^+) and nicotinamide adenine dinucleotide phosphate (NADP^+) were purchased from Roche Diagnostics (Indianapolis, IN). Homogeneous recombinant enzymes AKR1C1, AKR1C2, AKR1C3 and AKR1C4 were prepared and purified as previously described.^3 The specific activities of AKR1C3 and AKR1C2 for the oxidation of S-tetralol are 2.0 and 1.5 μmol/(min mg), respectively.
(§2) Assay of Enzyme Activity. The dehydrogenase activities of AKR1C3 and AKR1C2 were determined by measuring the UV absorption of NADH formation at 340 nm using a Beckman DU-640 spectrophotometer. […] After continuously monitoring for 5 min, we recorded the increase in UV absorption using different concentrations of an enzyme to calculate the initial velocity and determine the specific activity of the enzyme.
(§3) IC50 Value Determination. The inhibitory potency for each compound was represented by IC50 values and measured as described before. The IC50 values of [COMPOUND LEFT OUT] and [COMPOUND LEFT OUT] analogues were determined by measuring their inhibition of the NADP+-dependent oxidation of S-tetralol catalyzed by AKR1C3 or AKR1C2. […]

AKR1C2 = molecular target: T2, AKR1C2 (Homo sapiens, UniProt P52895); test: AKR1C2 enzyme inhibition (oxidation of S-tetralol); format: biochemical; details: role: substrate; 3.0 mM S-tetralol, 2.3 mM NAD+, 100 mM potassium phosphate pH 7.0, 37 °C
T2 construct: made in house
T2 sequence (P52895 1-323): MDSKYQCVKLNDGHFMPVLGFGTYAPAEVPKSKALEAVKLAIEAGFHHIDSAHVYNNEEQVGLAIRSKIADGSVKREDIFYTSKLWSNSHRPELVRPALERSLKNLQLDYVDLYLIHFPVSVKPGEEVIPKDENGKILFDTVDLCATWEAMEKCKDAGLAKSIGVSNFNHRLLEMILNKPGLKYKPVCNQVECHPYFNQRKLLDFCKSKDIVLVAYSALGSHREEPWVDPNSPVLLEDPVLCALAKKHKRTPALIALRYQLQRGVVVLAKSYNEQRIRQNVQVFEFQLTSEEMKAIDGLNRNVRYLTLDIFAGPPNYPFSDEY
Description: as §1, §2, §3

[2] = tested on: 22Rv1 prostate cancer cells; test: 22Rv1 cell viability (MTS assay); format: cell-based; details: 72 h
Description: Cell culture and reagents. 22Rv1 cells were purchased from the American Type Culture Collection (ATCC in 2016) and cultured in RPMI 1640 supplemented with 10% Fetal Bovine Serum (FBS, Fisher Scientific, MT35011CV) and Penicillin-Streptomycin Solution (1%, Fisher Scientific, MT30001Cl) at 37 °C in a humidified incubator with 5% carbon dioxide atmosphere. Stock solutions of E3 ligase ligand, lenalidomide 6 (10 mM), PROTAC 5 (25 mM), and AKR1C3 inhibitor 3 (100 mM) were prepared in DMSO.
Cell viability assay. Cells were seeded at a density of 10,000 cells/well in a 96-well plate containing 100 μL growth media per well and were incubated at 37 °C in a humidified incubator with 5% carbon dioxide over ~18-24 hours. Cells were treated with 6, 5, and 3 serially diluted at the indicated concentrations limiting the final DMSO concentration to less than 0.1% and incubated at 37 °C for 72 hours. 10 μL of MTS reagent (CellTiter96®Aqueous One Solution Reagent, Promega, G3580) was added to each well and incubated at the above-mentioned conditions for 4 hours. Absorbance was recorded at OD 490 nm on a Synergy LX multi-mode reader and the viability of cells were plotted as percentage of DMSO control.

AKR1C3 [3] = molecular target: T1, AKR1C3; test: AKR1C3 protein degradation in 22Rv1 prostate cancer cells (Western blot); format: cell-based; parameters: 22Rv1 prostate cancer cells that express high levels of AKR1C3; host or cells: 22Rv1; details: 1 μM and 10 μM; 24 h; in words
Description: Protein Expression via Western Blot. 22Rv1 cells were seeded in a 6-well plate and incubated overnight. Next day, the cells were treated with varying concentrations of 6 (1 and 10 μM) and 5 (0.5, 1, 10, 50, 100, 250, and 500 nM; 1, 10, and 50 μM) for 24 hours and 5 (1 and 10 nM) at different time points (0, 2, 4, 6, 12, 16, 24, 48, and 72 h). Whole cell lysates were extracted in RIPA lysis buffer containing protease inhibitor and EDTA (Fisher Scientific, PI78440). Protein concentrations in each sample was estimated following BCA assay (Pierce™ BCA protein assay kit, Fisher Scientific, PI23227) as per the manufacturer's protocol. Proteins were standardized using RIPA lysis buffer with Laemelli SDS sample buffer (Thermo Scientific, AAJ61337AC) and heated at 1000C for 15 minutes. The proteins were resolved on a 4-12% premade gel (Invitrogen, NW04120BOX) at 60-90 V in 20× Bolt™ MES SDS running buffer (Fisher Scientific, B000202) and transferred onto a nitrocellulose membrane (Invitrogen, IB23001) using iBlot 2. The membranes were blocked with 2.5% non-fat dry milk (Bio-Rad, 1706404) for 1 h, and the membrane was incubated overnight on a rocking platform at 4 °C with the desired primary antibodies against AKR1C3 (mouse mAb, 1:200, Sigma, A6229), AKR1C1/C2 (rabbit mAb, 1:500, Abcam, ab179448), ARv7 (rabbit mAb, 1:500, Abcam, ab198394) and actin (mouse mAb, 1:1,000, ThermoFisher, MA5-11869). The membranes were washed three times, 10 minutes each, with 1×Tris-buffered saline (TBST, Bio-Rad, 1706435) in 0.1% Tween 20, on a rocking platform wherein they were incubated with rabbit anti-mouse IgG (ThermoFisher, 31450) or goat anti-rabbit IgG (Jackson ImmunoResearch, 111-035-003) secondary antibody (1:1,000) horseradish peroxidase conjugate for 1 hour. The membranes were again washed three times with 1×TBST, upon which they were exposed to LI-COR WesternSure PREMIUM chemiluminescent substrate (Fisher Scientific, 50-489-552) and developed in a dark room with Konica Minolta equipment. Bands were quantified by densitometry using ImageJ software and fold change in AKR1C3, AKR1C1/C2, and ARv7 protein expression was determined based on actin controls. […]
The AKR1C3 degradation effect of PROTAC 5 was screened across a range of concentrations to identify a suitable treatment protocol. 22Rv1 cells were treated with increasing concentrations of […], DMSO or lenalidomide 6 at 1 μM and 10 μM for 24 hours, and the degradation profile was determined by Western blot analysis with antibody for AKR1C3.

[4] = substrate: O[C@H]1CCCc2ccccc21; test: AKR1C2 enzyme inhibition (oxidation of S-tetralol); format: biochemical; details: other: role: substrate; NADP+-dependent oxidation; pH 7.0; 37.0 °C
Description: as §1, §2, §3

specific activity of AKR1C3 for oxidation of S-tetralol (AKR1C3 [1]; 3.0 mM S-tetralol, 2.3 mM NAD+, 100 mM potassium phosphate pH 7.0, 37 °C): 2.0 µmol/min/mg
Km (AKR1C3 [1]; NADP+-dependent oxidation): 165 µM
specific activity of AKR1C2 for oxidation of S-tetralol (AKR1C2): 1.5 µmol/min/mg
Molecule: O[C@H]1CCCc2ccccc21 [S-tetralol, (S)-(+)-1,2,3,4-tetrahydro-1-naphthol]

IC50 ([2]; Homo sapiens, 22Rv1, MTS, mean±standard deviation of two independent experiments): > 100 µM
effect on AKR1C3 expression (AKR1C3 [3]): no effect on AKR1C3 expression
Molecule: Nc1cccc2c1CN(C1CCC(=O)NC1=O)C2=O (stereo not shown) [lenalidomide 6, lenalidomide, reference compound]
22Rv1 cell viability activity in words [2]: no activity

B1: AKR1C2 (Homo sapiens) (protein)
chain: MDSKYQCVKLNDGHFMPVLGFGTYAPAEVPKSKALEAVKLAIEAGFHHIDSAHVYNNEEQVGLAIRSKIADGSVKREDIFYTSKLWSNSHRPELVRPALERSLKNLQLDYVDLYLIHFPVSVKPGEEVIPKDENGKILFDTVDLCATWEAMEKCKDAGLAKSIGVSNFNHRLLEMILNKPGLKYKPVCNQVECHPYFNQRKLLDFCKSKDIVLVAYSALGSHREEPWVDPNSPVLLEDPVLCALAKKHKRTPALIALRYQLQRGVVVLAKSYNEQRIRQNVQVFEFQLTSEEMKAIDGLNRNVRYLTLDIFAGPPNYPFSDEY
notes: made in house
Km [4]: 15 µM
